Data taken from US7786161B2, “Carboxylic acid derivatives and pharmaceutical agent comprising the same as active ingredient” (ONO Pharmaceutical Co., Ltd., priority 2001, dated 2010).

What was measured:
Test in all cases: Receptor-binding experiment using cells expressing prostanoid receptor subtypes (3H-PGE2 binding, CHO cell membrane)
[1] = biological target: T1, EP1 receptor (Mus musculus, UniProt P35375); conditions: 3H-PGE2 (2.5 nM) binding inhibition, membrane of CHO cells expressing mouse EP1; Ki=IC50/(1+([C]/Kd))
T1 construct: expressed in transfected cells; host or cells: CHO cells
T1 sequence (P35375 1-405): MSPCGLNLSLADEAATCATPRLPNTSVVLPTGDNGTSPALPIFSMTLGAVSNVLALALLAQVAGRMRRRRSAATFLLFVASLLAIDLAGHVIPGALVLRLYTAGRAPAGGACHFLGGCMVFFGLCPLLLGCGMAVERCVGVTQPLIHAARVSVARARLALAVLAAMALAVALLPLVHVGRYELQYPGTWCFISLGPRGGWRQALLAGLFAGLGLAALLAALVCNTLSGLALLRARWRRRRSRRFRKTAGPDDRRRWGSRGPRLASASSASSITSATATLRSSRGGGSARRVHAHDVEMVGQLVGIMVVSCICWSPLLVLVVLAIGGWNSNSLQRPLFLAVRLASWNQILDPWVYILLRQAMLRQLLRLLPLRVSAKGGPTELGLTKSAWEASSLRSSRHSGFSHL
Description: (§1) The pharmacological activity is confirmed by the following receptor-binding experiment by using cells expressing prostanoid receptor subtypes. • (i) Receptor-binding experiment by using cells expressing prostanoid receptor subtypes In accordance with the method of Sugimoto et al. [J. Biol. Chem., 267, 6463-6466 (1992)], CHO cells respectively expressing prostanoid receptor subtypes (mouse EP1, EP2, EP3, and EP4) were prepared to give membrane preparations.
(§2) Each membrane fraction (50 μl) thus prepared and a reaction solution (150 μl) containing ^3H-PGE2 were incubated at room temperature for 1 hour. After ceasing the reaction with an ice-cooled buffer (3 ml), the bound ^3H-PGE2 was trapped in a glass filter (GF/B) by filtering with suction under reduced pressure. Then the bound radioactivity was measured with a liquid scintillator.
(§3) Kd value and Bmax value were determined by Scatchard plots [Ann. N.Y. Acad. Sci., 51, 660 (1949)]. Nonspecific bond was determined as bond in the presence of unlabeled PGE2 in excess (2.5 μM). The ^3H-PGE2-binding inhibitory effects of the invention compounds were measured by adding ^3H-PGE2 (2.5 nM) and the invention compounds at various concentrations. In every reaction, the following buffer was employed.
(§4) Buffer: potassium phosphate (10 mM, pH 6.0), EDTA (1 mM), MgCl2 (10 mM), NaCl (0.1 M).
(§5) The dissociation constant Ki (μM) of each compound was determined in accordance with the following formula. […] Ki=IC50/(1+([C]/Kd))

[2] = biological target: T2, EP2 receptor (Mus musculus, UniProt Q62053); conditions: 3H-PGE2 (2.5 nM) binding inhibition, membrane of CHO cells expressing mouse EP2; Ki=IC50/(1+([C]/Kd))
T2 construct: expressed in transfected cells; host or cells: CHO cells
T2 sequence (Q62053 whole entry): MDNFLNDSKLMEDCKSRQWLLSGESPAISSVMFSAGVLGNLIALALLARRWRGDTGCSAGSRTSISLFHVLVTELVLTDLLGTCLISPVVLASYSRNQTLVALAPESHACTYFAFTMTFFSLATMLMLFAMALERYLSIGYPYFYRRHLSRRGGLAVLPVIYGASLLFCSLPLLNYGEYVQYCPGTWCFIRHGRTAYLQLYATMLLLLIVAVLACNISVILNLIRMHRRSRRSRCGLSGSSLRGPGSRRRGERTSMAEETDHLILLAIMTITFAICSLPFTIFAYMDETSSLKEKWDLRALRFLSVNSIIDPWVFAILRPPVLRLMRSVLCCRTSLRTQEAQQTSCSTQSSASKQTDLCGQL
Description: as §1, §2, §3, §4, §5

[3] = biological target: T3, EP3 receptor (Mus musculus, UniProt P30557); conditions: 3H-PGE2 (2.5 nM) binding inhibition, membrane of CHO cells expressing mouse EP3; Ki=IC50/(1+([C]/Kd))
T3 construct: expressed in transfected cells; host or cells: CHO cells
T3 sequence (P30557 1-365): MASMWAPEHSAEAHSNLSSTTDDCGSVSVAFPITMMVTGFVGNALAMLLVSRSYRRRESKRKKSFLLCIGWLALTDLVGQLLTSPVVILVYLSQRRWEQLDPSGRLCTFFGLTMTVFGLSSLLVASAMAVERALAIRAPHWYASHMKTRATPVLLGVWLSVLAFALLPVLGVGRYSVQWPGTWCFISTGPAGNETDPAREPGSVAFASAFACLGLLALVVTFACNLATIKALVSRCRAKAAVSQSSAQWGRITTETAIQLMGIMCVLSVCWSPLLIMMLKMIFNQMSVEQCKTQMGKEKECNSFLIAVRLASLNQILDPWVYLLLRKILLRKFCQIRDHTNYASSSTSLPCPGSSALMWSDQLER
Description: as §1, §2, §3, §4, §5

[4] = biological target: T4, EP4 receptor (Mus musculus, UniProt P32240); conditions: 3H-PGE2 (2.5 nM) binding inhibition, membrane of CHO cells expressing mouse EP4; Ki=IC50/(1+([C]/Kd))
T4 construct: expressed in transfected cells; host or cells: CHO cells
T4 sequence (P32240 whole entry): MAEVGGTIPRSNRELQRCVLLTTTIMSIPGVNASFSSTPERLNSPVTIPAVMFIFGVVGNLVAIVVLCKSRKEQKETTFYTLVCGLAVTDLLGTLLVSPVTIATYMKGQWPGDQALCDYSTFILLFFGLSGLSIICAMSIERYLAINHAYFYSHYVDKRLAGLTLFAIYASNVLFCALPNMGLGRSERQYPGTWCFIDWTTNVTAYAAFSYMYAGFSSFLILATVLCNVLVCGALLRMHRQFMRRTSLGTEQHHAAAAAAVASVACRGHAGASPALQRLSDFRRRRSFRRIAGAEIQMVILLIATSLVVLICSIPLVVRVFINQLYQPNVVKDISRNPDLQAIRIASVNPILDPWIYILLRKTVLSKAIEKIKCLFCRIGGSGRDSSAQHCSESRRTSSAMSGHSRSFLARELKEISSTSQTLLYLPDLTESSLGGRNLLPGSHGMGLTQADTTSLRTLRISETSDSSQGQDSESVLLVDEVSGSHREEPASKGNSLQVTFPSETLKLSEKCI
Description: as §1, §2, §3, §4, §5

- Ki [1]: > 10 µM
- Ki [2]: > 10 µM
- Ki [3]: 270 nM
- Ki [4]: 38 nM
SMILES: CSCc1ccc(CCCC(=O)O)c(NC(=O)C(C)c2cccc3ccccc23)c1 (stereo not shown) [Example 8(13), 4-(2-((2-(naphthalen-1-yl)propanoyl)amino)-4-methylthiomethylphenyl)butanoic acid]
